The nature of series [1]: Pharmacokinetics in plasma after single bolus intravenous administration to rats. Also noted: species or system Sprague Dawley rats. The note with it: rat, in vivo; for AUC(0-inf) / AUC(0-t) / Cmax / clearance / half-life: male, Sprague Dawley. As to the method:
GLP-1 (9-36) analogues containing C-terminal extensions (FIG. 2) were tested in 9 week old male Sprague Dawley rats to evaluate biological half-life as well as other pharmacokinetic properties of the analogues. Rats used in the study were acclimated to laboratory conditions for approximately 1 week prior to testing. Polypeptide analogues were prepared as solutions for intravenous administration (bolus injection in the jugular vein) at concentrations of 0.15 mg/mL and 1.5 mg/mL in appropriate buffers. The compounds were then injected while the animals were still under anesthesia. Blood samples were taken form each animal at no more than 5 occasions. Following dose administration, blood samples (0.3 to 0.4 mL) were obtained by jugular venipuncture (lithium heparin was used as an anticoagulant) at selected time points (0, 2.5, 5, 10 and 15 minutes or 30, 45, 60, 120 and 240 minutes). The samples were analyzed for parent drug by LC-MS/MS. Numerical data was subjected to calculation of group mean values, standard deviations and coefficients of variation (expressed as a percent), where appropriate. The pharmacokinetic analysis (non-compartmental) of plasma concentration was performed using the PhAST software program (Version 2.3-004, Pheonix International Life Sciences Inc.). The highest experimental concentration was considered the peak concentration (Cmax; observed value). Whenever possible, the observed terminal phase rate constant (Kel) was calculated from the terminal 3 or more points (non-zero and non-Cmax points) of the log-linear regression. The number of points included in the regression analysis was such as to optimize r^2 value calculated for the regression. Terminal phase half-life (t1/2) was determined by dividing 0.693 by Kel. The area under the plasma concentration of each compound versus time-curve from time zero to the last quantifiable concentration (AUC0-t) was calculated by the linear trapezoidal method (Bailer, A. J., (1988) J. Pharmacokin. Biopharm., 1, 303-309). AUC0-∞, the area under the plasma concentration versus time curve from time zero to infinity, was calculated as the sum of AUC0-t plus the ratio of the last plasma concentration to Kel. Values below the limit of quantification were assigned a value of zero for pharmacokinetic analysis.

The conditions of series [2]: cited from earlier work.

The values that follow come from patent publication US20110245173A1, “Long-Acting GLP-1 Derivatives, and Methods of Treating Cardiac Dysfunction” (priority 2008, published 2011).

SMILES strings stand for the structures.

Usually AUC(0-inf) stands for total exposure, with the tail of the curve extrapolated. As usually defined, the AUC(0-t) is exposure summed from dosing to a finite time, without extrapolation to infinity. A lower AUC(0-t) goes with low exposure. What is called Cmax is the peak of the concentration-time curve. The clearance is the volume of plasma or blood freed of the substance per unit of time. Higher therefore signals a high capacity for elimination. As usually defined, the half-life is the time in which the quantity being followed falls by half.

On to `CC[C@H](C)[C@H](NC(=O)[C@H](Cc1ccccc1)NC(=O)[C@H](CCC(=O)O)NC(=O)[C@H](CCCCN)NC(=O)[C@H](C)NC(=O)[C@H](C)NC(=O)[C@H](CCC(N)=O)NC(=O)CNC(=O)[C@H](CCC(=O)O)NC(=O)[C@H](CC(C)C)NC(=O)[C@H](Cc1ccc(O)cc1)NC(=O)[C@H](CO)NC(=O)[C@H](CO)NC(=O)[C@@H](NC(=O)[C@H](CC(=O)O)NC(=O)[C@H](CO)NC(=O)[C@@H](NC(=O)[C@H](Cc1ccccc1)NC(=O)[C@@H](NC(=O)CNC(=O)[C@@H](N)CCC(=O)O)[C@@H](C)O)[C@@H](C)O)C(C)C)C(=O)N[C@@H](C)C(=O)N[C@@H](Cc1c[nH]c2ccccc12)C(=O)N[C@@H](CC(C)C)C(=O)N[C@H](C(=O)N[C@@H](CCCCN)C(=O)NCC(=O)N[C@@H](CCCNC(=N)N)C(N)=O)C(C)C` [DGS70], for which, in series [1] (0.15 mg/kg), the area under the curve AUC(0-inf) was 65.1 ng·h/mL, the AUC(0-t) is 63.8 ng·h/mL, the Cmax was 1060 ng/mL and the clearance worked out at 38.4 mL/min/kg. For the same compound, the “Tmax: Time to Cmax” value in series [1] (0.15 mg/kg) was 2.50 min. The same compound showed a half-life in series [1] (0.15 mg/kg, T1/2: Terminal phase half-life) of 1.64 min. In series [1] (1.5 mg/kg), the AUC(0-inf) is 679 ng·h/mL, the AUC(0-t) was 672 ng·h/mL, the concentration peaked (Cmax) at 10600 ng/mL and the clearance turned out to be 36.8 mL/min/kg. For the same compound, in series [1] (1.5 mg/kg), the “Tmax: Time to Cmax” value is 2.50 min. The compound also gave a half-life in series [1] (1.5 mg/kg, T1/2: Terminal phase half-life) of 2.22 min. Besides, the half-life in series [1] (1.5 mg/kg, half-life) was 1.6 to 2.2 min. For the same compound, the half-life in vivo in series [2] was 2 to 4 min.
